Measured values published in patent publication US10538495B2, “Modulators of indoleamine 2,3-dioxygenase” (GLAXOSMITHKLINE INTELLECTUAL PROPERTY DEVELOPMENT LIMITED, priority 2016, dated 2020).
Structures can show the parent of a compound that is named as a salt.

These compounds were tested against T1, indoleamine 2,3-dioxygenase (IDO1) (Homo sapiens, UniProt P14902) (assay: HeLa IDOi assay (kynurenine by mass spectrometry)). Conditions: IFN-γ stimulated HeLa cells, 2 days, kynurenine detected by mass spectrometry; read-out: HeLa pIC50 (converted).
Format: cell-based
Parameters: human epithelial HeLa cells (CCL-2; host or cells: HeLa cells stimulated with human IFN-γ
Experimental: (§1) Brief descriptions of the cellular assays are provided following the table.
(§2) Compounds of the present invention were tested via high-throughput cellular assays utilizing detection of kynurenine via mass spectrometry and cytotoxicity as end-points. For the mass spectrometry and cytotoxicity assays, human epithelial HeLa cells (CCL-2; ATCC®, Manassas, Va.) were stimulated with human interferon-γ (IFN-γ) (Sigma-Aldrich Corporation, St. Louis, Mo.) to induce the expression of indoleamine 2,3-dioxygenase (IDO1). Compounds with IDO1 inhibitory properties decreased the amount of kynurenine produced by the cells via the tryptophan catabolic pathway. Cellular toxicity due to the effect of compound treatment was measured using CellTiter-Glo® reagent (CTG) (Promega Corporation, Madison, Wis.), which is based on luminescent detection of ATP, an indicator of metabolically active cells.
(§3) In preparation for the assays, test compounds were serially diluted 3-fold in DMSO from a typical top concentration of 5 mM and plated at 0.5 μL in 384-well, polystyrene, clear bottom, tissue culture treated plates with lids (Greiner Bio-One, Kremsmünster, Austria) to generate 11-point dose response curves. Low control wells (0% kynurenine or 100% cytotoxicity) contained either 0.5 μL of DMSO in the presence of unstimulated (−IFN-γ) HeLa cells for the mass spectrometry assay or 0.5 μL of DMSO in the absence of cells for the cytotoxicity assay, and high control wells (100% kynurenine or 0% cytotoxicity) contained 0.5 μL of DMSO in the presence of stimulated (+IFN-γ) HeLa cells for both the mass spectrometry and cytotoxicity assays.
Frozen stocks of HeLa cells were washed and recovered in DMEM high glucose medium with HEPES (Thermo Fisher Scientific, Inc., Waltham, Mass.) supplemented with 10% v/v certified fetal bovine serum (FBS) (Thermo Fisher Scientific, Inc., Waltham, Mass.), and 1× penicillin-streptomycin antibiotic solution (Thermo Fisher Scientific, Inc., Waltham, Mass.). The cells were diluted to 100,000 cells/mL in the supplemented DMEM medium. 50 μL of either the cell suspension, for the mass spectrometry assay, or medium alone, for the cytotoxicity assay, were added to the low control wells, on the previously prepared 384-well compound plates, resulting in 5,000 cells/well or 0 cells/well respectively. IFN-γ was added to the remaining cell suspension at a final concentration of 10 nM, and 50 μL of the stimulated cells were added to all remaining wells on the 384-well compound plates. The plates, with lids, were then placed in a 37° C., 5% CO2 humidified incubator for 2 days.
(§4) Following incubation, the 384-well plates were removed from the incubator and allowed to equilibrate to room temperature for 30 minutes. For the cytotoxicity assay, CellTiter-Glo® was prepared according to the manufacturer's instructions, and 10 μL were added to each plate well. After a twenty minute incubation at room temperature, luminescence was read on an EnVision® Multilabel Reader (PerkinElmer Inc., Waltham, Mass.). For the mass spectrometry assay, 10 μL of supernatant from each well of the compound-treated plates were added to 40 μL of acetonitrile, containing 10 μM of an internal standard for normalization, in 384-well, polypropylene, V-bottom plates (Greiner Bio-One, Kremsmünster, Austria) to extract the organic analytes. Following centrifugation at 2000 rpm for 10 minutes, 10 μL from each well of the acetonitrile extraction plates were added to 90 μL of sterile, distilled H2O in 384-well, polypropylene, V-bottom plates for analysis of kynurenine and the internal standard on the RapidFire 300 (Agilent Technologies, Santa Clara, Calif.) and 4000 QTRAP MS (SCIEX, Framingham, Mass.). MS data were integrated using Agilent Technologies' RapidFire Integrator software, and data were normalized for analysis as a ratio of kynurenine to the internal standard. […]

T1 sequence (P14902 whole entry): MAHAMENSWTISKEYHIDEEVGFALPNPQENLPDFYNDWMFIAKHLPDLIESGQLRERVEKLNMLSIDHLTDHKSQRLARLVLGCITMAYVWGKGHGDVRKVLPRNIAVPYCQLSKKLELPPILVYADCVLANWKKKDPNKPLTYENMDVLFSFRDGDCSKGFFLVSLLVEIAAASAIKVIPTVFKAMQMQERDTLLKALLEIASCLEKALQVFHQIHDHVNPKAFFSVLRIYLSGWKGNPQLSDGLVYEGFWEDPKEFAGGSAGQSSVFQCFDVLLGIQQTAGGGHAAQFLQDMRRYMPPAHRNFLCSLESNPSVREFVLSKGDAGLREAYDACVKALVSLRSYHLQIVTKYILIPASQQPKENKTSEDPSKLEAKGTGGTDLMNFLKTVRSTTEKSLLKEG

Row | IC50 | SMILES
1 | 5010 nM | CC(C)(C)OC(=O)N1CCC(CC(=O)Nc2cc(-c3ccccc3-c3nn[nH]n3)ccc2SC(C)(C)C)CC1 [Example 29]
2 | > 10000 nM | CC(C)(C)Sc1ccc(-c2ccccc2-c2nn[nH]n2)cc1NC(=O)CC1CCNCC1 [Example 30, N-(4-(tert-butylthio)-2′-(2H-tetrazol-5-yl)-[1,1′-biphenyl]-3-yl)-2-(piperidin-4-yl)acetamide Hydrochloride]
3 | > 10000 nM | CC(=O)N1CCC(CC(=O)Nc2cc(-c3ccccc3-c3nn[nH]n3)ccc2SC(C)(C)C)CC1 [Example 31, 2-(1-Acetylpiperidin-4-yl)-N-(4-(tert-butylthio)-2′-(2H-tetrazol-5-yl)-[1,1′-biphenyl]-3-yl)acetamide]
4 | > 10000 nM | CC(C)(C)Sc1ccc(-c2ccccc2-c2nn[nH]n2)cc1NC(=O)CC1CCN(S(C)(=O)=O)CC1 [Example 32, N-(4-(tert-butylthio)-2′-(2H-tetrazol-5-yl)-[1,1′-biphenyl]-3-yl)-2-(1-(methylsulfonyl)piperidin-4-yl)acetamide]
5 | 7940 nM | COCC(=O)Nc1cc(-c2ccccc2-c2nn[nH]n2)ccc1SC(C)(C)C [Example 33, N-(4-(tert-butylthio)-2′-(2H-tetrazol-5-yl)-[1,1′-biphenyl]-3-yl)-2-methoxyacetamide]
6 | 100 nM | CC(C)(C)Sc1ccc(-c2ccccc2-c2nn[nH]n2)cc1NC(=O)Cc1ccc2c(c1)OCO2 [Example 38, 2-(Benzo[d][1,3]dioxol-5-yl)-N-(4-(tert-butylthio)-2′-(2H-tetrazol-5-yl)-[1,1′-biphenyl]-3-yl)acetamide]
7 | 126 nM | CC(C)(C)Sc1ccc(-c2ccccc2-c2nn[nH]n2)cc1Nc1nc(Cl)ns1 [Example 42, N-(4-(tert-butylthio)-2′-(2H-tetrazol-5-yl)-[1,1′-biphenyl]-3-yl)-3-chloro-1,2,4-thiadiazol-5-amine]
8 | 2510 nM | CC(CC(=O)O)c1ccc(SC(C)(C)C)c(Nc2nc(Cl)ns2)c1 (centres unmarked) [Example 45, 3-(4-(tert-Butylthio)-3-((3-chloro-1,2,4-thiadiazol-5-yl)amino)phenyl)butanoic Acid]
9 | 1000 nM | Cc1ccc(CC(=O)Nc2cc(-c3ccccc3-c3nnn(COP(=O)(OC(C)(C)C)OC(C)(C)C)n3)ccc2SC(C)(C)C)cc1 [Example 49, di-tert-butyl ((5-(4′-(tert-butylthio)-3′-(2-(p-tolyl)acetamido)-[1,1′-biphenyl]-2-yl)-2H-tetrazol-2-yl)methyl) phosphate]
10 | 126 nM | Cc1ccc(CC(=O)Nc2cc(-c3ccccc3-c3nnnn3COP(=O)(OC(C)(C)C)OC(C)(C)C)ccc2SC(C)(C)C)cc1 [Example 50, di-tert-butyl ((5-(4′-(tert-butylthio)-3′-(2-(p-tolyl)acetamido)-[1,1′-biphenyl]-2-yl)-1H-tetrazol-1-yl)methyl) phosphate]
11 | 25.1 nM | CC(=O)OCn1nnc(-c2ccccc2-c2ccc(SC(C)(C)C)c(NC(=O)Cc3ccc(C)cc3)c2)n1 [Example 57, (5-(4′-(tert-Butylthio)-3′-(2-(p-tolyl)acetamido)-[1,1′-biphenyl]-2-yl)-2H-tetrazol-2-yl)methyl Acetate]
12 | 39.8 nM | CC(=O)OCn1nnnc1-c1ccccc1-c1ccc(SC(C)(C)C)c(NC(=O)Cc2ccc(C)cc2)c1 [Example 58, (5-(4′-(tert-butylthio)-3′-(2-(p-tolyl)acetamido)-[1,1′-biphenyl]-2-yl)-1H-tetrazol-1-yl)methyl Acetate]
13 | 398 nM | COCn1nnc(-c2ccccc2-c2ccc(SC(C)(C)C)c(NC(=O)Cc3ccc(C)cc3)c2)n1 [Example 59, N-(4-(tert-butylthio)-2′-(2-(methoxymethyl)-2H-tetrazol-5-yl)-[1,1′-biphenyl]-3-yl)-2-(p-tolyl)acetamide]
14 | 63.1 nM | COCn1nnnc1-c1ccccc1-c1ccc(SC(C)(C)C)c(NC(=O)Cc2ccc(C)cc2)c1 [Example 60, N-(4-(tert-butylthio)-2′-(1-(methoxymethyl)-1H-tetrazol-5-yl)-[1,1′-biphenyl]-3-yl)-2-(p-tolyl)acetamide]
15 | 631 nM | Cc1ccc(CC(=O)Nc2cc(-c3ccccc3-c3nnn(C)n3)ccc2SC(C)(C)C)cc1 [Example 61, N-(4-(tert-butylthio)-2′-(2-methyl-2H-tetrazol-5-yl)-[1,1′-biphenyl]-3-yl)-2-(p-tolyl)acetamide]
16 | 501 nM | Cc1ccc(CC(=O)Nc2cc(-c3ccccc3-c3nnnn3C)ccc2SC(C)(C)C)cc1 [Example 62, N-(4-(tert-butylthio)-2′-(1-methyl-1H-tetrazol-5-yl)-[1,1′-biphenyl]-3-yl)-2-(p-tolyl)acetamide]

Each compound was assayed against T1, indoleamine 2,3-dioxygenase (IDO1) (assay: PBMC IDOi assay (kynurenine by mass spectrometry)). Conditions: IFN-γ and LPS stimulated human PBMC, 2 days, kynurenine detected by mass spectrometry; read-out: PBMC pIC50 (converted).
Format: cell-based
Experimental: as §1
as §2, with “peripheral blood mononuclear” for “epithelial HeLa”, “(PBMC) (PB003F; AllCells®, Alameda, Calif.)” for “(CCL-2; ATCC®, Manassas, Va.)”, “Mo.) and lipopolysaccharide from Salmonella minnesota (LPS) (Invivogen, San Diego, Calif.)” for “Mo.)”
as §3, with “(−IFN-γ/−LPS) PBMCs” for “(−IFN-γ) HeLa cells”, “(+IFN-γ/+LPS) PBMCs” for “(+IFN-γ) HeLa cells”
Frozen stocks of PBMCs were washed and recovered in RPMI 1640 medium (Thermo Fisher Scientific, Inc., Waltham, Mass.) supplemented with 10% v/v heat-inactivated fetal bovine serum (FBS) (Thermo Fisher Scientific, Inc., Waltham, Mass.), and 1× penicillin-streptomycin antibiotic solution (Thermo Fisher Scientific, Inc., Waltham, Mass.). The cells were diluted to 1,000,000 cells/mL in the supplemented RPMI 1640 medium. 50 μL of either the cell suspension, for the mass spectrometry assay, or medium alone, for the cytotoxicity assay, were added to the low control wells, on the previously prepared 384-well compound plates, resulting in 50,000 cells/well or 0 cells/well respectively. IFN-γ and LPS were added to the remaining cell suspension at final concentrations of 100 ng/ml and 50 ng/ml respectively, and 50 μL of the stimulated cells were added to all remaining wells on the 384-well compound plates. The plates, with lids, were then placed in a 37° C., 5% CO2 humidified incubator for 2 days.
as §4, with “and 40” for “and 10”, “Mass.).” for “Mass.). MS data were integrated using Agilent Technologies' RapidFire Integrator software, and data were normalized for analysis as a ratio of kynurenine to the internal standard.”

Row | IC50 | SMILES
17 | 1580 nM | Cc1ccc(NC(=O)Nc2cc(-c3ccccc3C(=O)O)ccc2SC(C)(C)C)cc1 [Example 14, 4′-(tert-Butylthio)-3′-(3-(p-tolyl)ureido)-[1,1′-biphenyl]-2-carboxylic Acid]
